For five molecules, IC50 results are on record in patent publication US20250195521A1 (Revolution Medicines, Inc., priority 2020, published 2025).

Test [1] has as its system NCI-H358 (K-Ras G12C). As to the kind of experiment: CellTiter-Glo cell viability assay, NCI-H358. Format: cell-based, human. The settings on record: 5-day treatment, read-out: H358 Cell Viability assay data (K-Ras G12C, IC50). The essentials:
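Cells seeded, compound added directly to plates; day 5: plates to RT ~30 min, CellTiter-Glo luminescence; (sample/avg DMSO)*100; 4-parameter fit.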

For test [2], the system named is NCI-H358 cells (K-Ras G12C). As to the kind of experiment: CellTiter-Glo cell viability, NCI-H358. It is filed as cell-based, human. The settings on record: K-Ras G12C, 5-day treatment, read-out: H358 Cell Viability IC50. The method, boiled down:
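Cells seeded, compound dispensed straight into wells, 5-day exposure. Plates brought to room temperature ~30 min, CellTiter-Glo luminescence measured. Normalized to DMSO (%), 4-parameter logistic fit.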
A general note: In ATP-based viability assays light output follows the ATP content of the culture.

Test [3] deals with KRAS G12S (Homo sapiens (Human), UniProt P01116+P62937, G12S). As to the kind of experiment: Ras-Raf disruption/FRET/MOA assay (BRAF RBD, Cyclophilin A). The following applies: read-out: KRAS G12S FRET IC50. Format: biochemical. The essentials:
(§1)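 His6-K-Ras-GMPPNP (12.5 nM), GST-BRAF RBD (50 nM) and tagless Cyclophilin A (25 μM) were combined in 25 mM HEPES pH 7.3 with 100 mM NaCl, 5 mM MgCl2, 0.1% BSA and 0.002% Tween20, with compound as a 10-point 3-fold series from 30 μM final, then incubated 3 h at 25° C.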

In test [4] the target is KRAS G13C (Homo sapiens (Human), UniProt P01116+P62937, G13C). The description is as above. It is filed as biochemical. The settings on record: read-out: KRAS G13C FRET IC50. The essentials:
as §1

Test [5] addresses KRAS G12D (Homo sapiens (Human), UniProt P01116+P62937, G12D). The description is as above. It is filed as biochemical. The settings on record: read-out: KRAS G12D FRET IC50. The essentials:
as §1

The target of test [6] is KRAS Q61H (Homo sapiens (Human), UniProt P01116+P62937, Q61H). Described as above. It is filed as biochemical. The method, boiled down: as §1
Test [7] concerns the target KRAS G12C (Homo sapiens (Human), UniProt P01116+P62937, G12C). The test is described as above. The settings on record: read-out: KRAS G12C FRET IC50. It is filed as biochemical. The essentials:
as §1

Test [8] concerns the target KRAS G12V (Homo sapiens (Human), UniProt P01116+P62937, G12V). Described as above. The following applies: read-out: KRAS G12V FRET IC50. Format: biochemical. The method, boiled down:
as §1

Test [9] addresses NRAS G12C (Homo sapiens (Human), UniProt P01111+P62937, G12C). Described as above. It is filed as biochemical. The following applies: read-out: NRAS G12C FRET data IC50. The essentials:
(§2)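 First, 25 μM Cyclophilin A, 12.5 nM His6-Ras-GMPPNP and 50 nM GST-BRAF RBD are mixed with diluted compound at pH 7.3. Next, 3 h at 25° C. Then 10 nM anti-His Eu-W1024 plus 50 nM anti-GST allophycocyanin for 1.5 h before TR-FRET reading.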

Test [10] concerns the target KRAS G13D (Homo sapiens (Human), UniProt P01116+P62937, G13D). The description is as above. Format: biochemical. The following applies: read-out: KRAS G13D FRET data IC50. The essentials:
as §1

Test [11] concerns the target NRAS WT (Homo sapiens (Human), UniProt P01111+P62937). The description is as above. It is filed as biochemical. The method, boiled down:
as §2

Test [12] addresses KRAS WT (Homo sapiens (Human), UniProt P01116+P62937). The test is described as above. Format: biochemical. The following applies: read-out: KRAS WT FRET data IC50. The method, boiled down:
as §1

The structures appear in SMILES notation. Read-outs that look alike come from different tables or passages of the source.

KRAS Q61H, sequence (P01116 other isoform, or with tags, fused parts or gaps Q61H): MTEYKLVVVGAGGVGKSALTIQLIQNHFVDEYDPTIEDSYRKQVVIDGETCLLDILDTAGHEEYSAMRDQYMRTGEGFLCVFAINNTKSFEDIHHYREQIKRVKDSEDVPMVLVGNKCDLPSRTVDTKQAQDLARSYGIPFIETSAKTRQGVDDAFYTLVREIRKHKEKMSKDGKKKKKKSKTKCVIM
KRAS Q61H, sequence (P62937 whole entry): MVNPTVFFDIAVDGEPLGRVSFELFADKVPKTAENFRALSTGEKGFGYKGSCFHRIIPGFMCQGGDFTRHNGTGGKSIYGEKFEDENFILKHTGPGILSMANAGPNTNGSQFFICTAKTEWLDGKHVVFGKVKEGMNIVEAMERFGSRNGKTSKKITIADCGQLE
KRAS G12V, sequence (P01116 other isoform, or with tags, fused parts or gaps G12V): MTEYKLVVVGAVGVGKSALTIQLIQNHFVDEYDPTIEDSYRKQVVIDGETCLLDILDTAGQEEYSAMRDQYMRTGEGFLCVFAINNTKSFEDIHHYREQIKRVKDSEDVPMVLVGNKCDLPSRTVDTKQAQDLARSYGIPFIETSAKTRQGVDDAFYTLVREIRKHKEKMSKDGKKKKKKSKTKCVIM
KRAS G12V, sequence (P62937 whole entry): as the sequence (P62937 whole entry) above
NRAS G12C, sequence (P01111 whole entry G12C): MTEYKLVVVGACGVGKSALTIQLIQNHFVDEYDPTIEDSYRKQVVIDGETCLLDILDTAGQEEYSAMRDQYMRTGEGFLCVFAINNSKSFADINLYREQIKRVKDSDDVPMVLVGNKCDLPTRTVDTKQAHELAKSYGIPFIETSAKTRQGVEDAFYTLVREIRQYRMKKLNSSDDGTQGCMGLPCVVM
NRAS G12C, sequence (P62937 whole entry): as the sequence (P62937 whole entry) above
KRAS G13D, sequence (P01116 other isoform, or with tags, fused parts or gaps G13D): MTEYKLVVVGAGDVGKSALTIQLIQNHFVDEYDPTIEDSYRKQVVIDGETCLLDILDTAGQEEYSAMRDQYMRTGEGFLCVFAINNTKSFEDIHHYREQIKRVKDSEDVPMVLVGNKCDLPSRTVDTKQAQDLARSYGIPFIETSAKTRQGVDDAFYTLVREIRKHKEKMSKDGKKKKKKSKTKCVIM
KRAS G13D, sequence (P62937 whole entry): as the sequence (P62937 whole entry) above
KRAS G12D, sequence (P01116 other isoform, or with tags, fused parts or gaps G12D): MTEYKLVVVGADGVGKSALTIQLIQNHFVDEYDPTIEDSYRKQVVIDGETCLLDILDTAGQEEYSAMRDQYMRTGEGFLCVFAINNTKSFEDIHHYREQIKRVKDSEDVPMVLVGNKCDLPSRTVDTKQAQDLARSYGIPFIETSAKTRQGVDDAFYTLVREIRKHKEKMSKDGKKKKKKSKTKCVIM
KRAS G12D, sequence (P62937 whole entry): as the sequence (P62937 whole entry) above
KRAS WT, sequence (P01116 other isoform, or with tags, fused parts or gaps): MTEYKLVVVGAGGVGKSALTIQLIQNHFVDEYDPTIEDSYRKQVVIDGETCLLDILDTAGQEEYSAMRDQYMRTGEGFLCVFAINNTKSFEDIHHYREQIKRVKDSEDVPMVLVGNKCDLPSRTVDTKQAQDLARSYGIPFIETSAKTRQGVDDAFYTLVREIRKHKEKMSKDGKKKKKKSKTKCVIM
KRAS WT, sequence (P62937 whole entry): as the sequence (P62937 whole entry) above
KRAS G12S, sequence (P01116 other isoform, or with tags, fused parts or gaps G12S): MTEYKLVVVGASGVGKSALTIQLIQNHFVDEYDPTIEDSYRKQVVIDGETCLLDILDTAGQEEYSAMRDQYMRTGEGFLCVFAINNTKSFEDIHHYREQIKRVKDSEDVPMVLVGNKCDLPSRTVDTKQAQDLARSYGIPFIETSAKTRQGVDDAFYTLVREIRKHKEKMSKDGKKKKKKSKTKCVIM
KRAS G12S, sequence (P62937 whole entry): as the sequence (P62937 whole entry) above
KRAS G13C, sequence (P01116 other isoform, or with tags, fused parts or gaps G13C): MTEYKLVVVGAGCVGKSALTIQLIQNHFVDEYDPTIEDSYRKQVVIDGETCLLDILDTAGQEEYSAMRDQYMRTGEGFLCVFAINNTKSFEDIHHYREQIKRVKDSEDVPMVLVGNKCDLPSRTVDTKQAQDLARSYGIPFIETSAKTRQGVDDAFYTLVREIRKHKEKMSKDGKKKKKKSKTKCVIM
KRAS G13C, sequence (P62937 whole entry): as the sequence (P62937 whole entry) above
KRAS G12C, sequence (P01116-2 other isoform, or with tags, fused parts or gaps G12C): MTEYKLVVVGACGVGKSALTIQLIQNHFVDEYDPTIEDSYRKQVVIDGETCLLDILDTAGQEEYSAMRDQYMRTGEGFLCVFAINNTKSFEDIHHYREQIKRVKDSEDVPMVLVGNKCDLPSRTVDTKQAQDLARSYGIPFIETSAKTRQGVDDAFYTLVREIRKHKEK
KRAS G12C, sequence (P62937 whole entry): as the sequence (P62937 whole entry) above
NRAS WT, sequence (P01111 whole entry): as the sequence (P01111 whole entry G12C) above, with C12G counted along it
NRAS WT, sequence (P62937 whole entry): as the sequence (P62937 whole entry) above

Usually IC50 stands for the concentration that inhibits the measured activity by half. Take `CCn1c(-c2cccnc2[C@H](C)OC)c2c3cc(ccc31)-c1csc(n1)[C@@H](OCC1CCN(C)CC1)[C@H](NC(=O)[C@H]1C[C@@H]1C)C(=O)N1CCC[C@H](N1)C(=O)OCC(C)(C)C2` [Compound A451, (1S,2S)—N-((6^3S,3S,4S,Z)-1^1-ethyl-1^2-(2-((S)-1-methoxyethyl)pyridin-3-yl)-10,10-dimethyl-3-((1-methylpiperidin-4-yl)methoxy)-5,7-dioxo-6^1,6^2,6^3,6^4,6^5,6^6-hexahydro-1^1H-8-oxa-2 (4,2)-thiazola-1 (5,3)-indola-6 (1,3)-pyridazinacycloundecaphane-4-yl)-2-methylcyclopropane-1-carboxamide]: the IC50 lay in the range of 10 to 100 nM in test [1]; 10 to 100 nM in [2]; 100 to 1000 nM in [3]; 100 to 1000 nM in test [4]; 1000 to 10000 nM in test [5]; 100 to 1000 nM in test [6]. Also, the IC50 in test [7] and in [8] was 100 to 1000 nM each time.
As to `CCO[C@@H]1c2nc(cs2)-c2ccc3c(c2)c(c(-c2cc(C4CCN(C5COC5)CC4)cnc2[C@H](C)OC)n3CC)CC(C)(C)COC(=O)[C@@H]2CCCN(N2)C(=O)[C@H]1NC(=O)[C@H]1[C@H](C)[C@@H]1C` [Compound A449, (1r,2R,3S)—N-((6^3S,3S,4S,Z)-3-ethoxy-1^1-ethyl-1^2-(2-((S)-1-methoxyethyl)-5-(1-(oxetan-3-yl)piperidin-4-yl)pyridin-3-yl)-10,10-dimethyl-5,7-dioxo-6^1,6^2,6^3,6^4,6^5,6^6-hexahydro-1^1H-8-oxa-2 (4,2)-thiazola-1 (5,3)-indola-6 (1,3)-pyridazinacycloundecaphane-4-yl)-2,3-dimethylcyclopropane-1-carboxamide], the IC50 in test [1] was 10 to 100 nM; in [2], 100 to 1000 nM; in test [3] it was 1000 to 10000 nM; in test [4], 100 to 1000 nM; in test [5] it was 1000 to 10000 nM; in test [6], 100 to 1000 nM. In addition, the IC50 in [7] was in the range of 100 to 1000 nM; in test [8] it was 1000 to 10000 nM.
As for `CCn1c(-c2cccnc2[C@H](C)OC)c2c3cc(ccc31)-c1csc(n1)C[C@H](NC(=O)[C@H](C(C)C)N(C)C(=O)N1CCN(C(C)=O)CC1)C(=O)N1CCC[C@H](N1)C(=O)OCC(C)(C)C2` [Compound A291], the IC50 is less than 10 nM in [1] (Homo sapiens, NCI-H358, 120 h); 10 to 100 nM in test [3]; 10 to 100 nM in [9]; 100 to 1000 nM in test [4]; 100 to 1000 nM in test [5]; 100 to 1000 nM in test [10]. Further, the IC50 in test [6] fell in the range of 10 to 100 nM; in test [7], 10 to 100 nM; in test [11] it was 10 to 100 nM; in test [8] it was 100 to 1000 nM; in test [12], 10 to 100 nM.
On to `CCn1c(-c2cccnc2[C@H](C)OC)c2c3cc(ccc31)-c1cc(O)cc(c1)C[C@H](NC(=O)[C@H](C(C)C)N(C)C(=O)[C@H]1CCN(C(C)=O)C1)C(=O)N1CCC[C@H](N1)C(=O)OCC(C)(C)C2` [Compound A5], for which the IC50 was in the range of 10 to 100 nM in [1] (Homo sapiens, NCI-H358, 120 h); 100 to 1000 nM in test [2] (Homo sapiens, NCI-H358, 120 h); 10 to 100 nM in [3]; 10 to 100 nM in test [9]; 100 to 1000 nM in test [4]; 100 to 1000 nM in test [5]. Also, the IC50 in [10] fell in the range of 100 to 1000 nM; in test [7] it was 10 to 100 nM; in test [8], 10 to 100 nM; in test [12], 100 to 1000 nM.
Consider `CCn1c(-c2cccnc2[C@H](C)OC)c2c3cc(ccc31)-c1cc(O)cc(c1)C[C@H](NC(=O)[C@H](C(C)C)N(C)C(=O)[C@@H]1OCC[C@H]1c1ccccc1)C(=O)N1CCC[C@H](N1)C(=O)OCC(C)(C)C2` [Compound A584], for which the IC50 in test [1] (Homo sapiens, NCI-H358, 120 h) is less than 10 nM; in test [2] (Homo sapiens, NCI-H358, 120 h) it was 10 to 100 nM; in [3], 10 to 100 nM; in test [9] it was 10 to 100 nM; in test [4], 10 to 100 nM; in test [5], 10 to 100 nM. In addition, the IC50 in test [10], in test [6], in test [7], in test [11], in test [8] and in test [12] was 10 to 100 nM throughout.
